This is an account of results in patent US8153609B2 (priority 2004, dated 2012).

“And” between values parts separate entries of the source, which are not always exact repeats. Equal values may be shown once. Where a name gives a salt, the structure may show the parent alone. Read-outs that look alike come from different tables or passages of the source.

The target of assay [1] is T1, PKA type Iα (RIα/Cα) holoenzyme (Homo sapiens, UniProt P10644). The assay can be described thus: Cook coupled spectrophotometric kinase assay, suppression (antagonist) assay, PKA type Iα. The assay is classed as biochemical. Conditions: for Potency: PKA type Iα enzymatic activity, relative to the known Rp-8-Br-cAMPS; for Antagonist / EC50: Table 1 (Example 83), PKA type Iα; for relative potency*: antagonists relative to Rp-8Br-cAMPS; for EC50: unit inferred, read-out: EC50 inhibition.

In assay [2] the target is T1, PKA type Iα (RIα/Cα) holoenzyme. Description: Cook assay, activation (agonist) assay, RIα holoenzyme. Conditions: Table 1 (Example 83), activation screen 10 μM analog. Format: biochemical.
Assay [3] relates to Human peripheral T lymphocytes. The assay can be described thus: T lymphocyte proliferation assay (anti-CD3 activated, [3H]thymidine). The following applies: Ex vivo testing in T lymphocytes; for Antagonist properties: in presence of agonist Sp-8-Br-cAMPS; for relative potency*: reference compounds = 1.00.
Assay [4] addresses T2, PKA type IIα (RIIα holoenzyme) (Homo sapiens, UniProt P13861). The assay can be described thus: Cook kinase assay, suppression assay, PKA type IIα. Conditions: for relative inhibition*: % antagonist effect with 1 μM Sp-8Br-cAMPS at 250 μM of Rp-cAMPS analog; for EC50RII/EC50RI***: Selectivity for PKA type I (EC50 PKA type II/EC50 PKA type I); for Antagonist / EC50: Table 2, Holo RIIa; for EC50: unit inferred, read-out: EC50 inhibition; for relative potency**: antagonists relative to Rp-8-Br-cAMPS, Holo RIIa; for IC50: reversal of Sp-8-Br-cAMP-mediated PKA type II activation, 1 μM Sp-8-Br cAMPS, 10 nM RIIα holoenzyme, read-out: half-maximal antagonistic effect (IC50 or EC50). Format: biochemical.

Assay [5] deals with PKA type Iα (holo RIα) (Homo sapiens, UniProt P10644). The assay can be described thus: Biacore surface competition ligand binding assay, holo RIα. The following applies: 10 nM holo RIα; for EC50: Rp-8-AHA cAMPS surface. (SPR reads the build-up and loss of mass on a sensor chip optically.)
Assay [6] concerns CD4+ T cells of MAIDS-infected C57BL6 mice. The following applies: mouse, in vivo.
Assay [7] has as its target T2, PKA type IIα (RIIα holoenzyme). Description: Cook assay, activation of Holo RIIα. Conditions: for Agonist: Table 2, Holo RIIa.
The mark [8] stands for this setting: reversal of Sp-8-Br-cAMP-mediated PKA activation, 1 μM Sp-8-Br-cAMPS, 10 nM RIα holoenzyme, read-out: half-maximal antagonistic effect (IC50 or EC50).

What is called EC50 is the concentration giving half of the maximal effect.

As for `Nc1ncnc2c1nc(-c1cccs1)n2C1OC2COP(O)(=S)OC2C1O` (stereo not shown) [Rp-8-(2-thienyl)-cAMPS, (Rp)-8-(2-Thienyl)adenosine-3′,5′-cyclic phosphorothioic acid ammonium salt], in assay [1], the Potency is given as 3.01, the Antagonist entry is reported as “yes” and the “relative potency*” value is listed as 3.01. The IC50 in assay [1] (setting [8]) is 449 nM. Also, in assay [2], the Agonist result was “no”. In assay [3], the Agonist properties result was “No” and the Antagonist properties result is reported as “Yes”.
With `CCc1nc2c(N)ncnc2n1C1OC2COP(O)(=S)OC2C1O` (stereo not shown) [Rp-8-ethyl-cAMPS], in assay [1], the Antagonist result is “yes” and the “relative potency*” value amounted to 0.22. Moreover, in assay [1] (setting [8]), the IC50 was found to be 6130 nM. For the same compound, in assay [2], the Agonist entry is listed as “no”. Also, in assay [3], the Agonist properties result is listed as “No” and the Antagonist properties entry is on record as “Yes”.
With `Nc1ncnc2c1nc(-c1ccco1)n2C1OC2COP(O)(=S)OC2C1O` (stereo not shown) [Rp-8-(2-furyl)-cAMPS, (Rp)-8-(2-Furyl)adenosine-3′,5′-cyclic phosphorothioic acid ammonium salt], in assay [1], the Potency is on record as 4.24, the Antagonist result is on record as “yes”, the EC50 came to 319 nM and the “relative potency*” value came to 4.24. Further, the IC50 in assay [1] (Table 3, read-out: holo RIa Cook) turned out to be 349 nM. In assay [1] (setting [8]), the IC50 was 238 nM and 337 nM and 360 nM. For the same compound, the Agonist entry in assay [2] is “no”. For the same compound, in assay [4], the “relative inhibition*” value turned out to be 59%, the “EC50RII/EC50RI***” value amounted to 32, the Antagonist entry is recorded as “yes” and the EC50 is 11600 nM. Besides, in assay [4], the “relative potency**” value turned out to be 1.28; the IC50 was 11600 nM and 16700 nM. In assay [5], this compound had an EC50 of 377 nM. The “binding to 8-AHA cAMP surface” value in assay [5] (any concentration of antagonist) is “not affected”. In addition, in assay [5] (excess of antagonist 10 μM), the “binding of holo complex at the Rp-8-AHA cAMPS surface” value is listed as “completely blocked” and the “effect in binding to the 8-AHA cAMP surface” value is recorded as “no effect”. Moreover, in assay [6], the “IFN-γ secretion of CD4+ T cells from the infected mice” value is on record as “slightly increasing”, the “TNF-α secretion by CD4 T cells of infected mice” value was “inhibited”, the “TNF-α secretion of CD4+ T cells from the infected mice after stimulation with SEB” value is “reducing” and the “significance (p) of effect on SEB stimulated TNF-α secretion by CD4 T cells” value came out at 0.0041. For the same compound, the Agonist entry in assay [7] was “no”. For the same compound, in assay [3], the Agonist properties result was “No” and the Antagonist properties entry is reported as “Yes”.
Consider `Nc1ncnc2c1nc(-c1cc3ccccc3o1)n2C1OC2COP(O)(=S)OC2C1O` (stereo not shown) [Rp-8-benzofuryl-cAMPS, (Rp)-8-(2-Benzofuryl)adenosine-3′,5′-cyclic phosphorothioic acid tributylammonium salt], for which, in assay [1], the Antagonist result is listed as “yes”, the half-maximal effective concentration (EC50) was 2780 nM and the “relative potency*” value came to 0.49. Moreover, the Agonist result in assay [2] is listed as “no”. Also, in assay [3], the Agonist properties result is “No” and the Antagonist properties entry is “Yes”.
In the case of `Nc1ncnc2c1nc(Br)n2[C@@H]1O[C@@H]2COP(O)(=S)O[C@@H]2C1O` (stereo partly shown) [Sp-8-Br-cAMPS, reference compound], the Antagonist entry in assay [4] was “no”. Also, the Agonist result in assay [7] is given as “yes”. The EC50 in assay [7] (read-out: EC50 (activation constant of Holo RIIα with agonist), 10 nM Holo RIIα, 3 minute preincubation) came to 294 nM. Moreover, in assay [3], the Agonist properties entry is “Yes”, the Antagonist properties result was “No” and the “relative potency*” value is on record as 1.00.
Consider `Nc1ncnc2c1nc(-c1ccc(Br)o1)n2C1OC2COP(O)(=S)OC2C1O` (stereo not shown) [Rp-8-(2-Br-5-furyl)-cAMPS], for which, in assay [1], the Antagonist entry is on record as “yes*”, the EC50 came out at 3000 nM and the “relative potency*” value stood at 0.45. The IC50 in assay [1] (setting [8]) came to 2900 nM. The Agonist entry in assay [2] is “no”. Moreover, in assay [3], the Agonist properties entry is “No” and the Antagonist properties result was “Yes”.
On to `Nc1ncnc2c1nc(-c1ccoc1)n2C1OC2COP(O)(=S)OC2C1O` (stereo not shown) [Rp-8-(3-furyl)-cAMPS, (Rp)-8-(3-Furyl)adenosine-3′,5′-cyclic phosphorothioic acid ammonium salt], for which, in assay [1], the Potency came to 2.23, the Antagonist result is listed as “yes” and the “relative potency*” value amounted to 2.23. The IC50 in assay [1] (setting [8]) was 607 nM. Besides, in assay [2], the Agonist entry is “no”. This compound also gave an EC50 in assay [5] of 743 nM. Moreover, the Antagonist properties entry in assay [3] is on record as “Yes”.
For the compound `Nc1ncnc2c1nc(-c1ccsc1)n2C1OC2COP(O)(=S)OC2C1O` (stereo not shown) [Rp-8-(3-thienyl)-cAMPS], in assay [1], the Potency is 1.83, the Antagonist result is on record as “yes” and the “relative potency*” value came to 1.83. Also, the IC50 in assay [1] (setting [8]) turned out to be 739 nM. Besides, in assay [2], the Agonist result is reported as “no”. In addition, in assay [3], the Antagonist properties entry is on record as “Yes”.
Regarding “(Rp)-8-(5-Methoxy-2-furyl)adenosine-3′,5′-cyclic phosphorothioic acid tributylammonium salt [Rp-8-(5-MeO-2-FU)-cAMPS]”, in assay [3], the Agonist properties entry is on record as “No”, the Antagonist properties result is given as “Yes” and the “relative potency*” value was found to be 0.25.
`Nc1ncnc2c1nc(-c1ccccc1)n2C1OC2COP(O)(=S)OC2C1O` (stereo not shown) [Rp-8-phenyl-cAMPS, (Rp)-8-Phenyladenosine-3′,5′-cyclic phosphorothioic acid]: in assay [1], the Potency is on record as 1.28, the Antagonist result is “yes”, the EC50 was 1060 nM and the “relative potency*” value is reported as 1.28. Also, the Agonist entry in assay [2] was “no”. In assay [4], the “relative inhibition*” value was 61%, the “EC50RII/EC50RI***” value was found to be 46, the Antagonist result is listed as “yes” and the EC50 is 48600 nM. Besides, in assay [4], the “relative potency**” value was 0.31 and the IC50 was determined as 48600 nM. Besides, the Agonist entry in assay [7] was “no”. In assay [3], the Agonist properties result is on record as “No” and the Antagonist properties result is recorded as “Yes”.
For “(Rp)-8-(2-Thiazolyl)adenosine-3′,5′-cyclic phosphorothioic acid ammonium salt [Rp-8-(2-thiazole)-cAMPS]”, in assay [3], the Agonist properties result is given as “No” and the Antagonist properties entry is given as “Weak”.
With `Nc1ncnc2c1nc(-c1ccc(CO)o1)n2C1OC2COP(O)(=S)OC2C1O` (stereo not shown) [Rp-8-(5-MeOH-2-furyl)-cAMPS, (Rp)-8-(2-Hydroxymethyl-5-furyl)adenosine-3′,5′-cyclic phosphorothioic acid tributylammonium salt], in assay [1], the Antagonist result is listed as “yes” and the “relative potency*” value is 0.68. Besides, in assay [1] (setting [8]), the IC50 is 1980 nM. For the same compound, the Agonist entry in assay [2] was “no”. Further, in assay [3], the Agonist properties entry was “No” and the Antagonist properties entry is “Yes”.
As for `CC(=O)c1nc2c(N)ncnc2n1C1OC2COP(O)(=S)OC2C1O` (stereo not shown) [Rp-8-acetyl-cAMPS], in assay [1], the Antagonist entry is listed as “yes” and the “relative potency*” value amounted to 0.86. Also, in assay [1] (setting [8]), the IC50 amounted to 1580 nM. In assay [2], the Agonist result is given as “no”. Besides, in assay [3], the Agonist properties result is given as “No” and the Antagonist properties entry is “Yes”.
Regarding `Cc1ccc(-c2nc3c(N)ncnc3n2C2OC3COP(O)(=S)OC3C2O)o1` (stereo not shown) [Rp-8-(5-Me-2-furyl)-cAMPS, (Rp)-8-(5-Methyl-2-furyl)adenosine-3′,5′-cyclic phosphorothioic acid tributylammonium salt], in assay [1], the Antagonist result is listed as “yes” and the “relative potency*” value came to 1.17. The IC50 in assay [1] (setting [8]) is 1160 nM. Also, the Agonist result in assay [2] is recorded as “no”. In assay [3], the Agonist properties entry is listed as “No” and the Antagonist properties result is reported as “Yes”.
